Source: ChEMBL document CHEMBL1121538, “Nucleosides. 116. 1-(beta-D-Xylofuranosyl)-5-fluorocytosines with a leaving group on the 3' position. Potential double-barreled masked precursors of anticancer nucleosides” (1980)
Values after ≈ are worked out from the molar mass of the structure shown.

How the values were obtained:
Format in all cases: functional
Conditions in all cases: read-out: ID50 (the source's name)
L5178Y [1] = test: The compound was tested for anticancer activity against L5178Y ([…] resistant) cell lines of mouse leukemia
L5178Y [2] = test: The compound was tested for anticancer activity against L5178Y (sensitive) cell lines of mouse leukemia
P815 [3] = test: The compound was tested for anticancer activity against P815([…] resistant) cell lines of mouse leukemia
P815 [4] = test: The compound was tested for anticancer activity against P815 (sensitive) cell lines of mouse leukemia

| IC50 (L5178Y [1]) [µg/mL] | IC50 (L5178Y [2]) [µg/mL] | IC50 (P815 [3]) [µg/mL] | IC50 (P815 [4]) [µg/mL] | SMILES |
| --- | --- | --- | --- | --- |
| > 100 | 0.03 (≈ 0.098 µM) | > 100 | 0.05 (≈ 0.163 µM) | Nc1ccn(C2OC(CO)C(Br)C2O)c(=O)n1 (stereo not drawn) |
| 8 (≈ 19.3 µM) | 0.06 (≈ 0.144 µM) | 3.9 (≈ 9.39 µM) | 0.02 (≈ 0.0481 µM) | Cc1ccc(S(=O)(=O)O[C@@H]2[C@@H](O)[C@H](n3cc(F)c(N)nc3=O)O[C@@H]2CO)cc1 |
| 10 (≈ 26.9 µM) | 0.08 (≈ 0.216 µM) | 8 (≈ 21.6 µM) | 0.1 (≈ 0.269 µM) | Nc1nc(=O)n(C2OC(CO)C(I)C2O)cc1F (stereo not drawn) |
| > 100 | 0.07 (≈ 0.218 µM) | 22 (≈ 68.5 µM) | 0.03 (≈ 0.0934 µM) | CS(=O)(=O)O[C@@H]1[C@@H](O)[C@H](n2ccc(N)nc2=O)O[C@@H]1CO |
| 2.6 (≈ 8.02 µM) | 0.06 (≈ 0.185 µM) | 5 (≈ 15.4 µM) | 0.2 (≈ 0.617 µM) | Nc1nc(=O)n(C2OC(CO)C(Br)C2O)cc1F (stereo not drawn) |
| > 100 | 0.08 (≈ 0.201 µM) | > 30 | 0.06 (≈ 0.151 µM) | Cc1ccc(S(=O)(=O)O[C@@H]2[C@@H](O)[C@H](n3ccc(N)nc3=O)O[C@@H]2CO)cc1 |
| > 100 | 0.1 (≈ 0.283 µM) | > 100 | 0.3 (≈ 0.85 µM) | Nc1ccn(C2OC(CO)C(I)C2O)c(=O)n1 (stereo not drawn) |
| 71 (≈ 254 µM) | 1 (≈ 3.58 µM) | > 30 | 0.7 (≈ 2.5 µM) | Nc1nc(=O)n(C2OC(CO)C(Cl)C2O)cc1F (stereo not drawn) |
| 79 (≈ 325 µM) | 20 (≈ 82.2 µM) | 40 (≈ 164 µM) | 10 (≈ 41.1 µM) | Nc1ccn([C@@H]2O[C@H](CO)[C@@H](O)[C@@H]2O)c(=O)n1 [CYTARABINE] |
| > 100 | 37 (≈ 151 µM) | > 100 | 21 (≈ 85.6 µM) | Nc1ccn([C@@H]2O[C@H](CO)[C@H](F)[C@H]2O)c(=O)n1 |
| > 100 | 2 (≈ 7.64 µM) | > 100 | 0.8 (≈ 3.06 µM) | Nc1ccn(C2OC(CO)C(Cl)C2O)c(=O)n1 (stereo not drawn) |
| 5.3 (≈ 15.6 µM) | 0.05 (≈ 0.147 µM) | 6 (≈ 17.7 µM) | 0.02 (≈ 0.0589 µM) | CS(=O)(=O)O[C@@H]1[C@@H](O)[C@H](n2cc(F)c(N)nc2=O)O[C@@H]1CO |
